Data: patent US20140127185A1, “METHODS AND COMPOSITIONS USING NEUROPROTECTIVE STEROIDS AND THROMBOLYTIC AGENTS” (priority 2012, published 2014)

Legend:
MMP-9 [1] = test: Permanent MCAO in rats: MMP-9 in peri-infarct cortex (Western blot, gelatin zymography, immunohistochemistry); assay type: in vivo, rat; details: for Expression of MMP-9 (immunohistochemistry): pMCAO, brain section; for Expression of MMP-9 (immunohistochemistry) / MMP-9 activity/levels (gelatin zymography): peri-infarct cortex at 72 hours; for Expression of MMP-9 (Western blot) / MMP-9 activity/levels (gelatin zymography): permanent MCAO; for Expression of MMP-9 (Western blot): 8 mg/kg i.p. 1 hour and s.c. 6 hours post-occlusion, peri-infarct cortex at 72 hours post-MCAO; for MMP-9 activity/levels (gelatin zymography): 8 mg/kg
Source text: (§1) Permanent focal cerebral ischemia is induced in the rat by direct ligation of the MCA. Peri-operative procedures and physiological monitoring are done similarly to those for thrombotic stroke surgery. Briefly, under anesthesia, the left CCA is isolated through a ventral midline neck incision and ligated permanently with a 4-0 surgical silk ligature. The left temporoparietal region of the head is shaved and a 2-cm incision is made vertically between the orbit and the ear canal. The underlying temporalis muscle is excised, and under direct visualization, the […] MCA is exposed through a 2-mm burr hole drilled 2 mm rostral to the fusion of the zygomatic arch with the squamosal bone. Drilling is performed under saline irrigation to the area throughout the procedure to prevent heat injury. […] The site of the occlusion is proximal to the MCA bifurcation, but distal to the origin of the lenticulostriate arteries. Using fine forceps, the dura and arachnoid overlying the MCA is opened and cut. The MCA is cauterized and cut permanently to […] recanalization using a bipolar electrocauterizer without damaging the brain surface. The temporalis muscle and skin is closed in layers, and rats allowed to recover from anesthesia on the heating pad.
(§2) All experimental treatments by injection are made in stock solutions using HBC (2-hydroxypropyl-β-cyclodextrin, 25% w/v solution in H2O) as the solvent. The HBC vehicle allows progesterone and allopregnanolone to be dissolved in a non-toxic aqueous solution. The initial dose of progesterone is given intraperitoneally for rapid absorption; all other injections are given subcutaneously. A simlar protocol may be followed for allopregnanolone.
(§3) Peri-infarct cortical tissue is processed for protein analysis. Tissues are homogenized in T-per (Pierce, Rockford, Ill.) containing protease inhibitor cocktail (P8340, Sigma). Homogenates are centrifuged for 15 minutes at 13,000 g. 40 μg of total protein is separated on 8-12% gel and transferred onto polyvinylidene difluoride (Millipore, Mass., USA; PVDF) membranes at 300 mA for 2 hours. To measure the level of immunoglobulin, the membranes were incubated overnight at 4° C. with anti Rat IgG conjugated to biotin. bEND 3 cells are subjected to hypoxia/reperfusion for 9 hours and then lysed on ice in 100 μl of RIPA buffer. Cell lysated are boiled and then electrophoresed in 12% SDS-PAGE acrylamide gels, transferred onto PVDF membranes, and incubated for 1 hour in TBS-T (tris-buffered saline and 0.1% Tween 20) containing 5% bovine serum albumin (BSA). Membranes are then incubated overnight at 4° C. with primary antibodies against occludin (Invitrogen, Calif., USA; 1:1000), claudin-5 (Invitrogen; 1:1000), and ZO-1 (Invitrogen; 1:1000), washed in TBS-T, and incubated for 1 hour at room temperature with corresponding peroxidase-conjugated secondary antibodies (1:5000; KPL, Gaithersburg, Md.). All blots are stripped and re-incubated with β-actin antibodies (1:5000, Sigma) as a loading control. The peroxidase reaction is developed with an ECL-plus detection kit (Amersham BioScience, Piscataway, N.J.). Intensity of the bands is measured by an Image Gauge version. 4.0 program (FUJI Photo Film Co., Ltd).
(§4) Rats were randomly assigned to receive progesterone (n=5), allopregnanolone (n=5), or vehicle (n=5). Progesterone and allopregnanolone (8 mg/kg) were dissolved in 22.5% 2-hydroxypropyl-β-cyclodextrin (25% w/v solution in water) (HBC) and given by intraperitoneal injection 1 hour post-occlusion. An additional 8 mg/kg subcutaneous injection was given 6 hours after middle cerebral artery occlusion (MCAO).
(§5) The rats were euthanized at 72 hours post-MCAO. The peri-infarct region was sampled using a 4-mm tissue punch.

MMP-2 = test: Permanent MCAO in rats: MMP-2 in peri-infarct cortex (Western blot, gelatin zymography, immunohistochemistry); assay type: in vivo, rat; details: for Expression of MMP-2 (immunohistochemistry): pMCAO, brain section; for Expression of MMP-2 (immunohistochemistry) / MMP-2 activity/levels (gelatin zymography): peri-infarct cortex at 72 hours; for Expression of MMP-2 (Western blot) / MMP-2 activity/levels (gelatin zymography): permanent MCAO; for Expression of MMP-2 (Western blot): 8 mg/kg i.p. 1 hour and s.c. 6 hours post-occlusion, peri-infarct cortex at 72 hours post-MCAO; for MMP-2 activity/levels (gelatin zymography): 8 mg/kg
Source text: as §1, §2, §3, §4, §5

[2] = system: blood-brain barrier (BBB); test: BBB disruption: serum IgG in ischemic cortex by Western blot; assay type: in vivo, rat; details: progesterone 8 mg/kg, s.c.; with tPA; 24 hours after injury
claudin-5 = test: Claudin-5 in H/R-treated bEND3 cells (Western blot); assay type: cell-based, mouse; details: tPA with H/R
Procedure: (§6) An immortalized mouse brain endothelial cell line (bEND 3) is purchased from American Type Culture Collection (ATCC, VA, USA) and cultured in Dulbecco's modified Eagle Medium (DMEM, ATCC) supplemented with 10% fetal bovine serum (ATCC). bEND 3 cells are seeded onto the luminal side of a filter (0.4 μm pore size; Corning, Lowell, MCA) coated with fibronectin (5 μg/ml) in 12-well plates for a transendothelial electrical resistance (TEER) test; and in 100-mm dishes for Western blot studies. Cell cultures are incubated at 37° C. in a 5%/95% mixture of CO2 and atmospheric air, and the medium is replaced every 3 days.
Peri-infarct cortical tissue is processed for protein analysis. Tissues are homogenized in T-per (Pierce, Rockford, Ill.) containing protease inhibitor cocktail (P8340, Sigma). Homogenates are centrifuged for 15 minutes at 13,000 g. […] Intensity of the bands is measured by an Image Gauge version. […]
(§7) To mimic ischemia-like conditions in vitro, immortalized mouse brain endothelial (bEND3) cells were exposed to 6 hours of hypoxia and 3 hours of reoxygeneation with or without the administration of tPA at a dose of 20 μ/ml. […] BBB integrity was evaluated by transendothelial membrane electrical resistance (TEER) measurement, MMP-9 activity, and the alteration of tight junction proteins following in vitro H/R injury.

MMP-9 [3] = test: Active MMP-9 fluorometric FRET peptide assay of ischemic cortex lysates; assay type: in vivo, rat; details: 24 hours after ischemia; tPA at 4.5 hours; vs control and tMCAO groups
Procedure: A Fluorimetric SensoLyte™ 490 kit (AnaSpec Corp., San Jose, Calif. USA) is used to quantify the specific enzymetic activity of active MMP-9 by using a fluorescence resonance energy transfer peptide containing a fluorescent donor and quenching acceptor (Lin, Hou et al. 2008). The samples (100 μg) are placed in a 96-well plate containing 50 μl of assay buffer. The proteolytic resonance energy transfer peptide is expressed as a fold change in fluorescence intensity at excitation of 355 nm/emission of 460 nm.
For in vivo evaluation, Male SD rats were subjected to MCAO, reperfused at 4.5 hours and then treated with tPA only (5 mg/kg body weight via femoral vein) at 4.5 hours post-stroke or with progesterone (intraperitoneally) at 2 hours post-stroke plus tPA at 4.5 hours post-stroke. Rats were killed at 24 hours post-ischemia and their brains perfused for evaluation of cerebral hemorrhage, brain swelling, BBB permeability, MMP-9 activity, and the alteration of tight junction proteins.
To directly determine MMP-9 activity after ischemia, proteolytic activity of MMP-9 was measured using a fluorescence resonance energy transfer peptide. […] Consistent with the Western blot results, exposure of cells to H/R and tPA for 9 hours reduced the detected levels of occludin, as compared to control bEND 3 cells, while MMP-9 levels were increased in cells exposed to H/R and tPA for 9 hours.

bEND3 cells = test: Transendothelial electrical resistance (TEER) after hypoxia/reperfusion (H/R); assay type: cell-based, mouse
Procedure: as §6
The electrical resistance across the membrane are measured using an Millicell ERS Voltohmmeter (Millipore, Billerica, Mass.). The extracellular matrix-treated Transwell inserts are placed in 12-well plates containing culture medium and then used to measure the background resistance. The resistance measurements of these blank filters are then subtracted from those of filters with cells. Values are shown as Q. based on culture inserts.
To mimic ischemia-like conditions in vitro, immortalized mouse brain endothelial (bEND3) cells were exposed to 6 hours of hypoxia and 3 hours of reoxygeneation with or without the administration of tPA at a dose of 20 μ/ml. Reoxygenation was initiated by adding glucose (4.5 g/L)-containing phenol red-free DMEM for 3 hours at 37° C. in 95% air and 5% CO2. The cells were treated with various concentrations progesterone for 24 hours before hypoxia/reperfusion (H/R). BBB integrity was evaluated by transendothelial membrane electrical resistance (TEER) measurement, MMP-9 activity, and the alteration of tight junction proteins following in vitro H/R injury.

MMP-9 [4] = test: MMP-9 levels in bEND3 cells exposed to H/R and tPA; assay type: cell-based, mouse; details: bEND3 cells exposed to H/R and tPA for 9 hours; progesterone pretreatment
Procedure: The bEnd 3 cells grown to confluence on coverslips are subjected to the indicated treatments. For […], cells are washed three times with PBS, fixed in 3% paraformaldehyde for 10 minutes, permeabilized with 02% Triton X-100 in PBS for 10 minutes and blocked with 10% BSA and 0.1% Triton X-100 in PBS for 1 hour. After washing with PBS, the monolyers are incubated with a primary antibody for occludin (Invitrogen, 1:200) and MMP-9 (Abeam, Mass., USA, 1:200) overnight at 4° C. The cell monolayers are then washed 3 times with PBS and incubated with Alexa Fluor 488 anti-rabbit and orange anti-mouse (Molecular Probes, Eugene, Oreg.) for 1 hour. After washing in PBS, the coverslips are mounted on glass slides with Vectasheild with dapi (Vecta Laboratories).
as §7
To directly determine MMP-9 activity after ischemia, proteolytic activity of MMP-9 was measured using a fluorescence resonance energy transfer peptide. […]

occludin = test: Occludin in H/R-treated bEND3 cells (Western blot, immunofluorescence); assay type: cell-based, mouse
Procedure: as §6, §3
The bEnd 3 cells grown to confluence on coverslips are subjected to the indicated treatments. […]
as §7

CC(=O)[C@H]1CC[C@H]2[C@@H]3CC[C@H]4C[C@H](O)CC[C@]4(C)[C@H]3CC[C@]12C [allopregnanolone, 3α-hydroxy-5α-pregnan-20-one]
Expression of MMP-9 (immunohistochemistry) (MMP-9 [1]): reduced | Expression of MMP-9 (Western blot) (MMP-9 [1]): decreased | MMP-9 activity/levels (gelatin zymography) (MMP-9 [1]): decreased | Expression of MMP-2 (immunohistochemistry) (MMP-2): reduced | Expression of MMP-2 (Western blot) (MMP-2): decreased | MMP-2 activity/levels (gelatin zymography) (MMP-2): decreased

CC(=O)[C@H]1CC[C@H]2[C@@H]3CCC4=CC(=O)CC[C@]4(C)[C@H]3CC[C@]12C [progesterone, pregn-4-ene-3,20-dione]
Levels of serum IgG in ischemic cortex [2]: reduced | Expression of 23-kDa claudin-5 (Western blot) (claudin-5): significantly prevented the decrease | Expression of MMP-9 (immunohistochemistry) (MMP-9 [1]): reduced | Expression of MMP-9 (Western blot) (MMP-9 [1]): decreased | MMP-9 activity/levels (gelatin zymography) (MMP-9 [1]): decreased | MMP-9 activity (FRET peptide) (MMP-9 [3]): inhibited | H/R-induced decrease of TEER (bEND3 cells; pretreatment with 5, 10 or 20 μM, H/R without tPA): significantly prevented | TEER values compared to untreated (bEND3 cells; progesterone 20 μM, H/R with tPA (FIG. 3C)): significantly higher | Expression of MMP-2 (immunohistochemistry) (MMP-2): reduced | Expression of MMP-2 (Western blot) (MMP-2): decreased | MMP-2 activity/levels (gelatin zymography) (MMP-2): decreased | MMP-9 levels (MMP-9 [4]): completely inhibited | Detected levels of occludin (immunofluorescence) (occludin; bEND3 cells exposed to H/R and tPA for 9 hours, progesterone pretreatment): completely inhibited | Expression of occludin (Western blot) (occludin; bEND3 cells, tPA with H/R): significantly prevented the decrease
